Source: publication PMC9239059, “Structure-Guided Synthesis of FK506 and FK520 Analogs with Increased Selectivity Exhibit In Vivo Therapeutic Efficacy against Cryptococcus” (mBio, 2022)
Converted amounts (≈) assume the structure as drawn.

Key:
FKBP12 [1] = target: T1, FKBP12 (Aspergillus fumigatus, UniProt Q4WLV6); experiment: BLI, compound-mediated ternary complex formation, […] compound; format: binding
T1 construct: gene fpr1A; biotinylated (Avi-tagged) FKBP12; with CnA-CnB-calmodulin

FKBP12 [2] = target: T2, FKBP12 (Candida albicans, UniProt C4YFI3+C4YS24+P28870); experiment: as above; format: binding
T2 construct: gene RBP1; biotinylated (Avi-tagged) FKBP12; with CnA-CnB-calmodulin

Aspergillus flavus = experiment: microbe, parasite or virus in culture; design: species or system Aspergillus fumigatus and other molds; modified CLSI M38-A2 broth microdilution in RPMI 1640, mold growth inhibition (MIC/MEC); conditions: Aspergillus flavus; MIC/MEC
Description: (§1) In vitro antifungal activities of FK506, FK520, and analogs were assessed in RPMI 1640 (Sigma-Aldrich) for all strains tested. MICs/minimum effective concentrations (MECs) for each drug were measured using modified Clinical and Laboratory Standards Institute (CLSI) M38-A2 and M27-A3 standard in vitro antifungal susceptibility protocols. Broth microdilution assays for MIC/MEC assessment were performed as described previously ([33]). All antifungal assays with C. neoformans were performed at 37°C. Antifungal susceptibility testing for C. albicans was performed in the presence of a uniform 1 μg/mL concentration of fluconazole to sensitize the organism to calcineurin inhibition. MICs/minimum effective concentrations (MECs) were determined for each of the novel analogs against the three major human fungal pathogens, A. fumigatus, C. neoformans, and C. albicans. […] Thus, analogs of FK506 and FK520 can tolerate up to 100-fold reduction in antifungal activity and still be considered for in vivo testing. For C. neoformans, MICs were the most uniform and ranged from 0.2 to 2 μg/mL, which is between 4- and 40-fold reduced for antifungal activity. C. albicans MICs ranged from 0.2 to 6.25 μg/mL, which is between 10- and 312.5-fold reduced for activity. Despite being one of the most difficult to treat fungal infections, all six analogs were active against A. fumigatus with MECs ranging from 1 to 2 μg/mL or a 62.5- to 125-fold reduction in activity. Two FK520 analogs, JH-FK-05 and JH-FK-07, maintained high levels of broad-spectrum antifungal activity across the three species, and JH-FK-07 had the lowest MICs for both C. neoformans and C. albicans. To assess the antifungal activity against other human fungal pathogens, we selected JH-FK-05 to test against a panel of pathogenic molds and drug-resistant A. fumigatus strains (Table S3). JH-FK-05 registered MECs as low as 1 μg/mL for some of these highly recalcitrant species, such as Mucor circinelloides, Rhizopus oryzae, and pan azole-resistant A. fumigatus (strain F14946).

[3] = tested on: T3, Aspergillus fumigatus (Wild-type) (akuBKu80); experiment: microbe, parasite or virus in culture; design: species or system Aspergillus fumigatus and other molds; modified CLSI M38-A2 broth microdilution in RPMI 1640, mold growth inhibition (MIC/MEC); conditions: MIC/MEC
T3 construct: akuBKu80
Description: as §1

[4] = tested on: T4, Aspergillus fumigatus F12776; experiment: microbe, parasite or virus in culture; design: species or system Aspergillus fumigatus and other molds; modified CLSI M38-A2 broth microdilution in RPMI 1640, mold growth inhibition (MIC/MEC); conditions: F12776, MIC/MEC, azole-resistant strain
T4 construct: F12776
Description: as §1

[5] = tested on: T5, Aspergillus fumigatus F14946; experiment: microbe, parasite or virus in culture; design: species or system Aspergillus fumigatus and other molds; modified CLSI M38-A2 broth microdilution in RPMI 1640, mold growth inhibition (MIC/MEC); conditions: F14946, MIC/MEC, azole-resistant strain
T5 construct: F14946
Description: as §1

[6] = tested on: T6, Aspergillus fumigatus F16216; experiment: microbe, parasite or virus in culture; design: species or system Aspergillus fumigatus and other molds; modified CLSI M38-A2 broth microdilution in RPMI 1640, mold growth inhibition (MIC/MEC); conditions: F16216, MIC/MEC, azole-resistant strain
T6 construct: F16216
Description: as §1

[7] = tested on: T7, Aspergillus fumigatus F16314; experiment: microbe, parasite or virus in culture; design: species or system Aspergillus fumigatus and other molds; modified CLSI M38-A2 broth microdilution in RPMI 1640, mold growth inhibition (MIC/MEC); conditions: F16314, MIC/MEC, azole-resistant strain
T7 construct: F16314
Description: as §1

[8] = tested on: T8, Aspergillus fumigatus F7075; experiment: microbe, parasite or virus in culture; design: species or system Aspergillus fumigatus and other molds; modified CLSI M38-A2 broth microdilution in RPMI 1640, mold growth inhibition (MIC/MEC); conditions: F7075, MIC/MEC, azole-resistant strain
T8 construct: F7075
Description: as §1

Aspergillus niger = experiment: microbe, parasite or virus in culture; design: species or system Aspergillus fumigatus and other molds; modified CLSI M38-A2 broth microdilution in RPMI 1640, mold growth inhibition (MIC/MEC); conditions: Aspergillus niger; MIC/MEC
Description: as §1

Aspergillus terreus = experiment: microbe, parasite or virus in culture; design: species or system Aspergillus fumigatus and other molds; modified CLSI M38-A2 broth microdilution in RPMI 1640, mold growth inhibition (MIC/MEC); conditions: Aspergillus terreus; MIC/MEC
Description: as §1

Mucor circinelloides = experiment: microbe, parasite or virus in culture; design: species or system Aspergillus fumigatus and other molds; modified CLSI M38-A2 broth microdilution in RPMI 1640, mold growth inhibition (MIC/MEC); conditions: Mucor circinelloides; MIC/MEC
Description: as §1

Paecilomyces variotti = experiment: microbe, parasite or virus in culture; design: species or system Aspergillus fumigatus and other molds; modified CLSI M38-A2 broth microdilution in RPMI 1640, mold growth inhibition (MIC/MEC); conditions: Paecilomyces; MIC/MEC
Description: as §1

Rhizomucor pusilus = experiment: microbe, parasite or virus in culture; design: species or system Aspergillus fumigatus and other molds; modified CLSI M38-A2 broth microdilution in RPMI 1640, mold growth inhibition (MIC/MEC); conditions: Rhizomucor; MIC/MEC
Description: as §1

Rhizopus oryzae = experiment: microbe, parasite or virus in culture; design: species or system Aspergillus fumigatus and other molds; modified CLSI M38-A2 broth microdilution in RPMI 1640, mold growth inhibition (MIC/MEC); conditions: Rhizopus arrhizus; MIC/MEC
Description: as §1

Scedosporium apiospermum = experiment: microbe, parasite or virus in culture; design: species or system Aspergillus fumigatus and other molds; modified CLSI M38-A2 broth microdilution in RPMI 1640, mold growth inhibition (MIC/MEC); conditions: Scedosporium apiospermum; MIC/MEC
Description: as §1

Scedosporium prolificans = experiment: microbe, parasite or virus in culture; design: species or system Aspergillus fumigatus and other molds; modified CLSI M38-A2 broth microdilution in RPMI 1640, mold growth inhibition (MIC/MEC); conditions: Lomentospora prolificans; MIC/MEC
Description: as §1

[9] = tested on: T9, Cryptococcus neoformans (H99); experiment: microbe, parasite or virus in culture; design: CLSI M27-A3 broth microdilution in RPMI 1640 at 37 C, growth inhibition of C. neoformans (MIC); conditions: Cryptococcus neoformans, read-out: MIC (μg/mL) against: / Cryptococcus neoformans (H99)^a
T9 construct: H99
Description: as §1, with “activity.” for “activity. Two FK520 analogs, JH-FK-05 and JH-FK-07, maintained high levels of broad-spectrum antifungal activity across the three species, and JH-FK-07 had the lowest MICs for both C. neoformans and C. albicans. To assess the antifungal activity against other human fungal pathogens, we selected JH-FK-05 to test against a panel of pathogenic molds and drug-resistant A. fumigatus strains (Table S3). JH-FK-05 registered MECs as low as 1 μg/mL for some of these highly recalcitrant species, such as Mucor circinelloides, Rhizopus oryzae, and pan azole-resistant A. fumigatus (strain F14946).”

T2 sequence (P28870 whole entry): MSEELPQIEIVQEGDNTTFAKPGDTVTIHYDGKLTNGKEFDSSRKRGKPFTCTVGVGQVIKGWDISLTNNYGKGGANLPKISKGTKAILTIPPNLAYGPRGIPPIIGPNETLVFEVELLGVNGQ
T2 sequence (C4YFI3 54-445): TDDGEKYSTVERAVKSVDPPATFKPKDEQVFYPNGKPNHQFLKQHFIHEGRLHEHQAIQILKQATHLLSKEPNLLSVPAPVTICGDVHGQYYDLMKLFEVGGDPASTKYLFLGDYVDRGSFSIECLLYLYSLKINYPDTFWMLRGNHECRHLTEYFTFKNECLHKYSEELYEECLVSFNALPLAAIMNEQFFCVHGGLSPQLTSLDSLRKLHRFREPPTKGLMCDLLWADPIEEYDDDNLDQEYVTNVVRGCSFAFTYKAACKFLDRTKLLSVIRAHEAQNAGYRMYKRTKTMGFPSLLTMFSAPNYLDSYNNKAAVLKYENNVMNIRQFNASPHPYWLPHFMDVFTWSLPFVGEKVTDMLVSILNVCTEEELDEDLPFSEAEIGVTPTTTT
T2 sequence (C4YS24 1-173): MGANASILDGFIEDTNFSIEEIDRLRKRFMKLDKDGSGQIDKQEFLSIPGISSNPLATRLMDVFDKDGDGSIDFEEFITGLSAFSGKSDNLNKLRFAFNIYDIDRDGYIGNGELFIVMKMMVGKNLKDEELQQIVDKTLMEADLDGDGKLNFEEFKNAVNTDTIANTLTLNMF
T2 sequence (P23286 whole entry partner): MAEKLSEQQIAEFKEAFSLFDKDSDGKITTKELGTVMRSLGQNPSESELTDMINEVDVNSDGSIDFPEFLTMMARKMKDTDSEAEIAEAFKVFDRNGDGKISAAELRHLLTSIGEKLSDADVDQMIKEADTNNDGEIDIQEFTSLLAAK
T1 sequence (Q4WLV6 whole entry): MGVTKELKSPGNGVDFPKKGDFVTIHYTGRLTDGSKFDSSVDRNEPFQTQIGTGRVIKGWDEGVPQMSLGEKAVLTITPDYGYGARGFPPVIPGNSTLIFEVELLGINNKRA
T1 sequence (Q4WUR1 whole entry partner): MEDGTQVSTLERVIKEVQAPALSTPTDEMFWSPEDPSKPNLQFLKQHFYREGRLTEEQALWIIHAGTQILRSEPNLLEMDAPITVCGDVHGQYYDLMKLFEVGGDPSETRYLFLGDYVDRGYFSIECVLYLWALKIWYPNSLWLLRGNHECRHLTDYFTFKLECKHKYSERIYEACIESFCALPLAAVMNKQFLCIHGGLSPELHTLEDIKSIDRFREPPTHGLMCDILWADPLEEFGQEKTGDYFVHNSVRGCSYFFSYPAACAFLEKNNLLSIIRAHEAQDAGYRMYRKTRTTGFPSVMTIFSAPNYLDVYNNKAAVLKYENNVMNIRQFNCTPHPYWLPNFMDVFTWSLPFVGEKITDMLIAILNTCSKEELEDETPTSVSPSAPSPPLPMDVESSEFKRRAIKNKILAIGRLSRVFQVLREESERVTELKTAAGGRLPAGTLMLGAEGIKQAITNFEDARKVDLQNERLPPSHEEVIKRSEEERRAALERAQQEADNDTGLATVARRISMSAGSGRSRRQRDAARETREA

SMILES: CC[C@@H]1/C=C(\C)C[C@H](C)C[C@H](OC)[C@H]2O[C@@](O)(C(=O)C(=O)N3CCCC[C@H]3C(=O)O[C@H](/C(C)=C/[C@@H]3CC[C@@H](O)[C@H](OC)C3)[C@H](C)[C@@H](O)C/C1=N/NC(C)=O)[C@H](C)C[C@@H]2OC [JH-FK-05]
- BLI, compound-mediated ternary complex formation, 10 μM compound (FKBP12 [1]): target complexes form in the presence of the analogs with affinities similar to those of the parent compounds
- BLI, compound-mediated ternary complex formation, 10 μM compound (FKBP12 [2]): target complexes form in the presence of the analogs with affinities similar to those of the parent compounds
- MIC (Aspergillus flavus): 1 µg/mL (≈ 1.18 µM)
- MIC [3]: 1 µg/mL (≈ 1.18 µM)
- MIC [4]: 2 µg/mL (≈ 2.36 µM)
- MIC [5]: 1 µg/mL (≈ 1.18 µM)
- MIC [6]: 1 µg/mL (≈ 1.18 µM)
- MIC [7]: 1 µg/mL (≈ 1.18 µM)
- MIC [8]: 2 µg/mL (≈ 2.36 µM)
- MIC (Aspergillus niger): < 1 µg/mL
- MIC (Aspergillus terreus): 1 µg/mL (≈ 1.18 µM)
- MIC (Mucor circinelloides): 1 µg/mL (≈ 1.18 µM)
- MIC (Paecilomyces variotti): > 8 µg/mL
- MIC (Rhizomucor pusilus): > 8 µg/mL
- MIC (Rhizopus oryzae): 1 µg/mL (≈ 1.18 µM)
- MIC (Scedosporium apiospermum): > 8 µg/mL
- MIC (Scedosporium prolificans): > 8 µg/mL
- MIC [9]: 1 µg/mL (≈ 1.18 µM)

SMILES: C=CC[C@@H]1/C=C(\C)C[C@H](C)C[C@H](OC)[C@H]2O[C@@](O)(C(=O)C(=O)N3CCCC[C@H]3C(=O)O[C@H](/C(C)=C/[C@@H]3CC[C@@H](O)[C@H](OC)C3)[C@H](C)[C@@H](O)CC1=O)[C@H](C)C[C@@H]2OC [FK506]
- BLI, compound-mediated ternary complex formation, 10 μM compound (FKBP12 [2]): along with compounds FK506, APX879, FK520, JH-FK-02, and JH-FK-05
- MIC [9]: 0.05 µg/mL (≈ 0.0622 µM)

SMILES: C=CC[C@@H]1/C=C(\C)C[C@H](C)C[C@H](OC)[C@H]2O[C@@](O)(C(=O)C(=O)N3CCCC[C@H]3C(=O)O[C@H](/C(C)=C/[C@@H]3CC[C@@H](O)[C@H](OC)C3)[C@H](C)[C@@H](O)C/C1=N/NC(=O)CC)[C@H](C)C[C@@H]2OC [JH-FK-02]
- BLI, compound-mediated ternary complex formation, 10 μM compound (FKBP12 [1]): target complexes form in the presence of the analogs with affinities similar to those of the parent compounds
- BLI, compound-mediated ternary complex formation, 10 μM compound (FKBP12 [2]): target complexes form in the presence of the analogs with affinities similar to those of the parent compounds
- MIC [9]: 2 µg/mL (≈ 2.29 µM)
